Experiments:
Format in all cases: in vivo
[1] = system: cherry fruit tree (Satonishiki); test: reducing fruit-cracking and improving fruit quality, spray on cherry fruit tree
Description: The effects of a quality improver in reducing fruit-cracking and improving fruit quality were evaluated using a cherry fruit tree (Satonishiki). That is, the quality improver of Example 1 was sprayed on the cherry fruit tree at the polyvalent metal concentrations shown in Table 10 over three times from early May (two-week interval). Each treatment was conducted on each branch by spraying with a backpack sprayer.
The evaluation was carried out on 50 randomly selected fruits. The incidence of fruit-cracking was expressed as a ratio of the number of fruits with cracking to the total number of fruits examined. The degree of fruit coloring was expressed as the colored area of a fruit. The sugar content was determined using a sugar refractometer. The acidity was expressed as titratable malic acid content. The dirt on a fruit surface was evaluated by a ratio of the surface area soiled whitish to the total surface area of the fruit on a scale of 1 to 5 (not soiled=1, slightly soiled=2, a little soiled=3, moderately soiled=4, much soiled=5). The phytotoxicity was evaluated on a scale of 1 to 5 (normal=1, slightly damaged=2, a little damaged=3, moderately damaged=4, much damaged=5).
The examinations were carried out in the same manner as in Application Example 64 except that the quality improvers of Examples 2 to 4, 6 to 7, 12, 14, 17 to 18, and Comparative Examples 1 to 4 were used instead of the quality improver of Example 1.

[2] = system: apple tree (Orin); test: reducing bitter pit and improving fruit quality, spray on apple tree; conditions: for Incidence of bitter pit: 50 fruits, sprayed four times; for Ground color: fruit skin, 5-point scale (best=5, worst=1); for Phytotoxicity: scale of 1 to 5; for Sugar content: sugar refractometer; for Acidity: titratable malic acid content
Description: The effects of a quality improver in reducing bitter pit and improving fruit quality were evaluated using an apple tree (Orin). That is, the quality improver of Example 1 was sprayed on the apple tree at the polyvalent metal concentrations shown in Table 4 over four times from early June (two-week interval). Each treatment was conducted on each branch by spraying with a backpack sprayer.
The evaluation was carried out on 50 randomly selected fruits. The incidence of bitter pit was expressed as a ratio of the number of fruits with bitter pit to the total number of fruits examined. The ground color of fruit skin was determined on a 5-point scale (best=5, worst=1). The sugar content was determined using a sugar refractometer. The acidity was expressed as titratable malic acid content. The phytotoxicity was evaluated on a scale of 1 to 5 (normal=1, slightly damaged=2, a little damaged=3, moderately damaged=4, much damaged=5).
The examinations were carried out in the same manner as in Application Example 22 except that the quality improvers of Examples 2 to 21 and Comparative Examples 1 to 4 were used instead of the quality improver of Example 1.

[3] = system: pear tree (Housui); test: reducing water core and improving fruit quality, spray on pear tree
Description: The effects of a quality improver in reducing water core and improving fruit quality were evaluated using a pear tree (Housui).
That is, the quality improver of Example 1 was sprayed on the pear tree at the polyvalent metal concentrations shown in Table 14 over four times from late April (ten-day interval) and two times from middle July (ten-day interval). Each treatment was conducted on each branch by spraying with a backpack sprayer.
The evaluation was carried out on 30 randomly selected fruits. The degree of water core was evaluated by examining three cross sections of the stalk cavity part, the equatorial part, and the calyx end part of the fruit based on a 4-point scale (none=0, mild=1, moderate=2, severe=3). The result of the evaluation was expressed by the following equation: water core index={(1×the number of fruits with mild water core)+(2×the number of fruits with moderate water core)+(3×the number of fruits with severe water core)}/(the number of fruits examined). The fruit with a water core index of 2 or 3 was considered as a seriously damaged fruit. The ground color of fruit skin was determined using a color chart for Japanese pear based on a scale of 1 (immature) to 6 (overmature). The sugar content was determined using a sugar refractometer. The dirt on a fruit surface was evaluated by a ratio of the surface area soiled whitish to the total surface area of the fruit on a scale of 1 to 5 (not soiled=1, slightly soiled=2, a little soiled=3, moderately soiled=4, much soiled=5). The phytotoxicity was evaluated on a scale of 1 to 5 (normal=1, slightly damaged=2, a little damaged=3, moderately damaged=4, much damaged=5).
The examinations were carried out in the same manner as in Application Example 94 except that the quality improvers of Examples 2 to 4, 6 to 7, 12, 14, 17 to 18, and Comparative Examples 1 to 4 were used instead of the quality improver of Example 1.

Row | Structure (SMILES) | Acidity ([1]; polyvalent metal 0.030 wt. %) | Degree of fruit coloring ([1]; polyvalent metal 0.030 wt. %) | Incidence of fruit-cracking ([1]; polyvalent metal 0.030 wt. %) | Phytotoxicity ([1]; polyvalent metal 0.030 wt. %) | Sugar content ([1]; polyvalent metal 0.030 wt. %) | Acidity ([1]; polyvalent metal 0.075 wt. %) | Degree of fruit coloring ([1]; polyvalent metal 0.075 wt. %) | Incidence of fruit-cracking ([1]; polyvalent metal 0.075 wt. %) | Phytotoxicity ([1]; polyvalent metal 0.075 wt. %) | Sugar content ([1]; polyvalent metal 0.075 wt. %) | Incidence of bitter pit ([2]; polyvalent metal 0.030 wt. %) | Incidence of bitter pit ([2]; polyvalent metal 0.075 wt. %) | Ground color ([2]; polyvalent metal 0.030 wt. %) | Ground color ([2]; polyvalent metal 0.075 wt. %) | Phytotoxicity ([2]; polyvalent metal 0.030 wt. %) | Phytotoxicity ([2]; polyvalent metal 0.075 wt. %) | Sugar content ([2]; polyvalent metal 0.030 wt. %) | Sugar content ([2]; polyvalent metal 0.075 wt. %) | Acidity ([2]; polyvalent metal 0.030 wt. %) | Acidity ([2]; polyvalent metal 0.075 wt. %) | further results
1 | [Ca+2].[Cl-].[Cl-] [calcium chloride] | 0.64 | 79.2 | 18.2% | 4 | 19.4 | 0.66 | 78.4 | 18.5% | 4 | 19.2 | 30.0% | 25.0% | 3.7 | 3.9 | 4 | 4 | 14.1 | 14.2 | 0.37 | 0.35 | Ground color ([3]; polyvalent metal 0.030 wt. %): 3.7; Phytotoxicity ([3]; polyvalent metal 0.030 wt. %): 4; Seriously damaged fruit ([3]; polyvalent metal 0.030 wt. %): 30.0%; Sugar content ([3]; polyvalent metal 0.030 wt. %): 12.8; Water core index ([3]; polyvalent metal 0.030 wt. %): 0.97; Ground color ([3]; polyvalent metal 0.075 wt. %): 3.5; Phytotoxicity ([3]; polyvalent metal 0.075 wt. %): 4; Seriously damaged fruit ([3]; polyvalent metal 0.075 wt. %): 26.7%; Sugar content ([3]; polyvalent metal 0.075 wt. %): 12.6; Water core index ([3]; polyvalent metal 0.075 wt. %): 0.90
2 | O=C[O-].O=C[O-].[Ca+2] [calcium formate] | 0.63 | 80.5 | 16.1% | 3 | 19.9 | 0.62 | 80.3 | 15.6% | 3 | 20.2 | 26.0% | 24.0% | 3.8 | 3.8 | 3 | 3 | 14.5 | 14.9 | 0.38 | 0.30 | Ground color ([3]; polyvalent metal 0.030 wt. %): 3.6; Phytotoxicity ([3]; polyvalent metal 0.030 wt. %): 3; Seriously damaged fruit ([3]; polyvalent metal 0.030 wt. %): 23.3%; Sugar content ([3]; polyvalent metal 0.030 wt. %): 13.0; Water core index ([3]; polyvalent metal 0.030 wt. %): 0.80; Ground color ([3]; polyvalent metal 0.075 wt. %): 3.8; Phytotoxicity ([3]; polyvalent metal 0.075 wt. %): 3; Seriously damaged fruit ([3]; polyvalent metal 0.075 wt. %): 16.7%; Sugar content ([3]; polyvalent metal 0.075 wt. %): 13.2; Water core index ([3]; polyvalent metal 0.075 wt. %): 0.77

From US8404619B2, “Particulate plant treatment composition” (Maruo Calcium Company Limited, priority 2005, dated 2013)
